# pIC50: −log10 of the molar value. Read-outs that look alike come from different tables or passages of the source.
# Target: CDK12 wt/CycK (Homo sapiens (Human), UniProt Q9NYV4)
# Assay: Radiometric protein kinase assay (33PanQinase Activity Assay), Assay Condition A (thiol containing conditions)
# Assay type: biochemical
# Description: Example 1—Assay Condition A (Thiol Containing Conditions)
# Objective: The IC50 profile of test compounds was determined using three protein kinases.
# Test compounds: The compounds were provided as pre-weighed powders in vials. The compounds were dissolved to 1×10^−02M by adding DMSO. 100 μl of each of the resulting stock solutions were transferred into column 2 of four 96 well “master plates”.
# Prior to testing, the 1×10^−02M stock solutions in column 2 of the master plates were subjected to a serial, semi-logarithmic dilution using 100% DMSO as a solvent. […] Column 1 and 7 were filled with 100% DMSO as controls. Subsequently, 2×10 μl from each well of the serial diluted copy plates were aliquoted with a 96 channel pipettor into two identical sets of “compound dilution plates”.
# In the process, 90 μl H2O were added to each well of a set of compound dilution plates. To minimize potential precipitation, the H2O was added to each plate only a few minutes before the transfer of the compound solutions into the assay plates. Each plate was shaken thoroughly, resulting in a “compound dilution plate/10% DMSO”.
# For the assays, 5 μl solution from each well of the compound dilution plates/10% DMSO were transferred into the assay plates. The final volume of the assay was 50 μl. All compounds were tested at 10 final assay concentrations in the range from 1×10^−04M to 3×10^−09M, in singlicate. The final DMSO concentration in the reaction cocktails was 1% in all cases.
# Recombinant protein kinases: All protein kinases were expressed in Sf9 insect cells or in E. coli as recombinant GST-fusion proteins or His-tagged proteins, either as full-length or enzymatically active fragments. All kinases were produced from human cDNAs and purified by either GSH-affinity chromatography or immobilized metal. Affinity tags were removed from a number of kinases during purification. The purity of the protein kinases was examined by SDS-PAGE/Coomassie staining, the identity was checked by mass spectroscopy.
# Protein kinase assay: A radiometric protein kinase assay (^33PanQinase® Activity Assay) was used for measuring the kinase activity of the three protein kinases. All kinase assays were performed in 96-well FlashPlates™ from PerkinElmer (Boston, Mass., USA) in a 50 μl reaction volume. The reaction cocktail was pipetted in four steps in the following order: • 20 μl of assay buffer (standard buffer) • 5 μl of ATP solution (in H2O) • 5 μl of test compound (in 10% DMSO) • 20 μl enzyme/substrate mix
# The following amounts of enzyme and substrate were used per well:
# The reaction cocktails were incubated at 30° C. for 60 minutes. The reaction was stopped with 50 μl of 2% (v/v) H3PO4, plates were aspirated and washed two times with 200 μl 0.9% (w/v) NaCl. Incorporation of ^33Pi was determined with a microplate scintillation counter (Microbeta, Wallac). All assays were performed with a BeckmanCoulter/SAGIAN™ Core System.
# Evaluation of raw data: The median value of the counts in column 1 (n=8) of each assay plate was defined as “low control”. This value reflects unspecific binding of radioactivity to the plate in the absence of a protein kinase but in the presence of the substrate. The median value of the counts in column 7 of each assay plate (n=8) was taken as the “high control”, i.e. full activity in the absence of any inhibitor. The difference between high and low control was taken as 100% activity.
# As part of the data evaluation the low control value from a particular plate was subtracted from the high control value as well as from all 80 “compound values” of the corresponding plate. The residual activity (in %) for each well of a particular plate was calculated by using the following formula: Res. Activity (%)=100×[(cpm of compound−low control)/(high control−low control)]
# The residual activities for each concentration and the compound IC50 values were calculated using Quattro Workflow V3.1.1 (Quattro Research GmbH, Munich, Germany).
# [1] = thiol containing conditions (1.2 mM DTT), ATP 0.3 μM, read-out: CDK12 IC50 Condition A
# Sequence of CDK12 wt/CycK (Q9NYV4 whole entry): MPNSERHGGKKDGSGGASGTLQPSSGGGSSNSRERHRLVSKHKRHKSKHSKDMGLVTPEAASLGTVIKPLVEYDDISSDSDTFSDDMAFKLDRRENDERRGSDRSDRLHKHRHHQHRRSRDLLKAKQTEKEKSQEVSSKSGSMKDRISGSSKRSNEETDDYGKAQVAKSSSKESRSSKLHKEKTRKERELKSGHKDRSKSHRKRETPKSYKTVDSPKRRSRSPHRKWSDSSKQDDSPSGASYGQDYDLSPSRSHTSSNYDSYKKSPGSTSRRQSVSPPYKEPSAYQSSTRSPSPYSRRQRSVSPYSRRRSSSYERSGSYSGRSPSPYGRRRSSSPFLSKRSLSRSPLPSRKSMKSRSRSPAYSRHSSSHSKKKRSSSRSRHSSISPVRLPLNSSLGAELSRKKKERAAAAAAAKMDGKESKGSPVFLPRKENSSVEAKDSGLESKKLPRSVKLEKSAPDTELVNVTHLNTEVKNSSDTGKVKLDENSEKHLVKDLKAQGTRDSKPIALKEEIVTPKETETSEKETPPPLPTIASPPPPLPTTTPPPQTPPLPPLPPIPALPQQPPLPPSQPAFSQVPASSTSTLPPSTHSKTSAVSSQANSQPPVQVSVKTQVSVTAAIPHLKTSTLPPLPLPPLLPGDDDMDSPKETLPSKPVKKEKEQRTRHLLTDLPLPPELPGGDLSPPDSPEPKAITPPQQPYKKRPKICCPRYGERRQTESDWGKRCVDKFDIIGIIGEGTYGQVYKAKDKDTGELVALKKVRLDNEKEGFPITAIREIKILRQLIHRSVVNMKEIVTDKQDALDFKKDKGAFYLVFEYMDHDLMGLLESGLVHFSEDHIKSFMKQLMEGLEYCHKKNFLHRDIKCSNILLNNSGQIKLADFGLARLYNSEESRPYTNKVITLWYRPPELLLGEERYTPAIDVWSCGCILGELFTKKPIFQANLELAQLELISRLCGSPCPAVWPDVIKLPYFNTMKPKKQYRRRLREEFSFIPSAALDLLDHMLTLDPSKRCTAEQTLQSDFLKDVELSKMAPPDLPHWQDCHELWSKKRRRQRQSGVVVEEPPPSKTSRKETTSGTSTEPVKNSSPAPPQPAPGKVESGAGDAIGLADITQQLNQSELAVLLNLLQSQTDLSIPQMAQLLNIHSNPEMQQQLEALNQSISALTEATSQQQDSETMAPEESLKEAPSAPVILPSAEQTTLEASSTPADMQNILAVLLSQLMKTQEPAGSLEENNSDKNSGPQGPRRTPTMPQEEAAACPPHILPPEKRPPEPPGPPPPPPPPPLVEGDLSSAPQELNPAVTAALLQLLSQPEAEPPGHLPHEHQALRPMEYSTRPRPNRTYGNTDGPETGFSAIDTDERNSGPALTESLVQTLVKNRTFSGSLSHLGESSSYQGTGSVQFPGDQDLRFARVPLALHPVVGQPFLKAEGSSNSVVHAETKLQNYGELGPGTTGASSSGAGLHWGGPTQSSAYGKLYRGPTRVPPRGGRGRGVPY
# Sequence of CDK12 wt/CycK (O75909 whole entry partner): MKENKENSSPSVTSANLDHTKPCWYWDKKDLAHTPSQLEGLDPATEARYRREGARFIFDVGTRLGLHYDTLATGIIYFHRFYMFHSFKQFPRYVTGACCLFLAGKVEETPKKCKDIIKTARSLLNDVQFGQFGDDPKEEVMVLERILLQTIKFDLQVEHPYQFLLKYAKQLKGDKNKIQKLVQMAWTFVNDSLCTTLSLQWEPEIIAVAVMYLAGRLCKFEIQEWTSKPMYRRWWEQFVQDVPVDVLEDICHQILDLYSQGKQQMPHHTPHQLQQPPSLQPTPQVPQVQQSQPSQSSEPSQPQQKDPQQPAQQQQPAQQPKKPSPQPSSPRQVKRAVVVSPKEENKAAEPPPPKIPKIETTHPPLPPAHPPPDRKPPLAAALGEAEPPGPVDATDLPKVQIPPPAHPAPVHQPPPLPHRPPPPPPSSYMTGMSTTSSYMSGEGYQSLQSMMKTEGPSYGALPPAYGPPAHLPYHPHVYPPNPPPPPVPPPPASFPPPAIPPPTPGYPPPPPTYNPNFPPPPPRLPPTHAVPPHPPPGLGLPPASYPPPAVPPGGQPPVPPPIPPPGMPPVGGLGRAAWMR
SMILES,pIC50 [1],pIC50
"C=CC(=O)N(C)c1ccc(C(=O)N2CC[C@@H](Nc3ncc(C#N)cn3)C2)cc1 [Example 70, (R)—N-(4-(3-((5-cyanopyrimidin-2-yl)amino)pyrrolidine-1-carbonyl)phenyl)-N-methylacrylamide]",6.00 to 7.00,
"C=CC(=O)N(C)c1ccc(C(=O)N2CC[C@@H](Nc3ncc(Cl)c(OC)n3)C2)nc1 [Example 77, (R)—N-(6-(3-((5-chloro-4-methoxypyrimidin-2-yl)amino)pyrrolidine-1-carbonyl)pyridin-3-yl)-N-methylacrylamide]",6.00 to 7.00,
"C=CC(=O)Nc1ccc(C(=O)N2CC[C@@H](Nc3ncc(Cl)cn3)C2)cc1 [Example 87, (R)—N-(4-(3-((5-chloropyrimidin-2-yl)amino)pyrrolidine-1-carbonyl)phenyl)acrylamide]",6.00 to 7.00,
"C=CC(=O)Nc1ccc(C(=O)N2CC[C@@H](Nc3ncc(Cl)c(OCCOC)n3)C2)cc1 [Example 88, (R)—N-(4-(3-((5-chloro-4-(2-methoxyethoxy)pyrimidin-2-yl)amino)pyrrolidine-1-carbonyl)phenyl)acrylamide]",> 7.00,
"C=CC(=O)Nc1ccc(C(=O)N2CC[C@@H](Nc3ncc(Cl)c(N4CCC4)n3)C2)cc1 [Example 89, (R)—N-(4-(3-((4-(azetidin-1-yl)-5-chloropyrimidin-2-yl)amino)pyrrolidine-1-carbonyl)phenyl)acrylamide]",6.00 to 7.00,
"C=CC(=O)Nc1ccc(C(=O)N2CC[C@@H](Nc3ncc(Cl)c(N)n3)C2)cc1 [Example 90, (R)—N-(4-(3-((4-amino-5-chloropyrimidin-2-yl)amino)pyrrolidine-1-carbonyl)phenyl)acrylamide]",> 7.00,
"C=CC(=O)Nc1ccc(C(=O)N2CC[C@@H](Nc3ncc(C(F)(F)F)c(N)n3)C2)cc1 [Example 91, (R)—N-(4-(3-((4-amino-5-(trifluoromethyl)pyrimidin-2-yl)amino)pyrrolidine-1-carbonyl)phenyl)acrylamide]",> 7.00,
"C=CC(=O)Nc1ccc(C(=O)N2CC[C@@H](Nc3ncc(Cl)c(C(F)(F)F)n3)C2)cc1 [Example 92, (R)—N-(4-(3-((5-chloro-4-(trifluoromethyl)pyrimidin-2-yl)amino)pyrrolidine-1-carbonyl)phenyl)acrylamide]",> 7.00,
"[2H]C([2H])([2H])Oc1nc(N[C@@H]2CCN(C(=O)c3ccc(NC(=O)C=C)cc3)C2)ncc1Cl [Example 93, (R)—N-(4-(3-((5-chloro-4-(trideuteromethoxy)pyrimidin-2-yl)amino)pyrrolidine-1-carbonyl)phenyl)acrylamide]",> 7.00,
"C=CC(=O)Nc1nc(C(=O)N2CC[C@@H](Nc3ncc(Cl)cn3)C2)cs1 [Example 94, (R)—N-(4-(3-((5-chloropyrimidin-2-yl)amino)pyrrolidine-1-carbonyl)thiazol-2-yl)acrylamide]",6.00 to 7.00,
"C=CC(=O)Nc1ccc(C(=O)N2CC[C@@H](Nc3ncc(Cl)c(Oc4ccccc4)n3)C2)cc1 [Example 95, (R)—N-(4-(3-((5-chloro-4-phenoxypyrimidin-2-yl)amino)pyrrolidine-1-carbonyl)phenyl)acrylamide]",> 7.00,
"C=CC(=O)Nc1ccc(C(=O)N2CC[C@@H](Nc3ncc(Cl)c(OCC)n3)C2)cc1 [Example 96, (R)—N-(4-(3-((5-chloro-4-ethoxypyrimidin-2-yl)amino)pyrrolidine-1-carbonyl)phenyl)acrylamide]",> 7.00,
"C=CC(=O)Nc1ccc(C(=O)N2CC[C@@H](Nc3ncc(Cl)c(O)n3)C2)cc1 [Example 97, (R)—N-(4-(3-((5-chloro-4-hydroxypyrimidin-2-yl)amino)pyrrolidine-1-carbonyl)phenyl)acrylamide]",4.00 to 4.52,
"CN(C)C/C=C/C(=O)Nc1ccc(C(=O)N2CC[C@@H](Nc3ncc(Cl)cn3)C2)cc1 [Example 98, (R,E)-N-(4-(3-((5-chloropyrimidin-2-yl)amino)pyrrolidine-1-carbonyl)phenyl)-4-(dimethylamino)but-2-enamide]",5.00 to 6.00,
"C=CC(=O)Nc1ccc(C(=O)N2CC[C@@H](Nc3ncc(C4CC4)c(OC)n3)C2)cc1 [Example 99, (R)—N-(4-(3-((5-cyclopropyl-4-methoxypyrimidin-2-yl)amino)pyrrolidine-1-carbonyl)phenyl)acrylamide]",6.00 to 7.00,
"C=CC(=O)Nc1nc(C(=O)N2CC[C@@H](Nc3ncc(C(F)(F)F)cn3)C2)cs1 [Example 100, (R)—N-(4-(3-((5-(trifluoromethyl)pyrimidin-2-yl)amino)pyrrolidine-1-carbonyl)thiazol-2-yl)acrylamide]",6.00 to 7.00,
"C=CC(=O)Nc1nc(C(=O)N2CCC[C@@H](Nc3ncc(Cl)c(OC)n3)C2)cs1 [Example 101, (R)—N-(4-(3-((5-chloro-4-methoxypyrimidin-2-yl)amino)piperidine-1-carbonyl)thiazol-2-yl)acrylamide]",6.00 to 7.00,
"C=CC(=O)Nc1ccc(C(=O)N2CC[C@@H](Nc3ncc(Cl)c(OCCC#N)n3)C2)cc1 [Example 102, (R)—N-(4-(3-((5-chloro-4-(2-cyanoethoxy)pyrimidin-2-yl)amino)pyrrolidine-1-carbonyl)phenyl)acrylamide]",> 7.00,
"C=CC(=O)Nc1ccc(C(=O)N2CC[C@@H](Nc3ncc(Cl)cn3)C2)cc1OC1CCOC1 (stereo partly drawn) [Example 103, N-(4-((R)-3-((5-chloropyrimidin-2-yl)amino)pyrrolidine-1-carbonyl)-2-((tetrahydrofuran-3-yl)oxy)phenyl)acrylamide]",6.00 to 7.00,
"C=CC(=O)N(C)c1ccc(C(=O)N2CC[C@@H](Nc3ncc(Br)cn3)C2)cc1 [Example 104, (R)—N-(4-(3-((5-bromopyrimidin-2-yl)amino)pyrrolidine-1-carbonyl)phenyl)-N-methylacrylamide]",> 7.00,
"C=CC(=O)Nc1cccc(C(=O)N2CC[C@@H](Nc3ncc(Cl)c(OC)n3)C2)c1 [Example 105, (R)—N-(3-(3-((5-chloro-4-methoxypyrimidin-2-yl)amino)pyrrolidine-1-carbonyl)phenyl)acrylamide]",6.00 to 7.00,
"C=CC(=O)Nc1cccc(C(=O)N2CCC[C@@H](Nc3ncc(Cl)c(OC)n3)C2)c1 [Example 106, (R)—N-(3-(3-((5-chloro-4-methoxypyrimidin-2-yl)amino)piperidine-1-carbonyl)phenyl)acrylamide]",4.52 to 5.00,
"C=CC(=O)Nc1ccc(C(=O)N2CC[C@@H](Nc3ncc(CC(C)C)cn3)C2)cc1 [Example 107, (R)—N-(4-(3-((5-isobutylpyrimidin-2-yl)amino)pyrrolidine-1-carbonyl)phenyl)acrylamide]",5.00 to 6.00,
"C=CC(=O)Nc1ccc(C(=O)N2CC[C@](C)(Nc3ncc(Cl)cn3)C2)cc1 [Example 108, (S)—N-(4-(3-((5-chloropyrimidin-2-yl)amino)-3-methylpyrrolidine-1-carbonyl)phenyl)acrylamide]",4.00 to 4.52,
"C=CC(=O)Nc1ccc(C(=O)N2CC[C@@](C)(Nc3ncc(Cl)cn3)C2)cc1 [Example 109, (R)—N-(4-(3-((5-chloropyrimidin-2-yl)amino)-3-methylpyrrolidine-1-carbonyl)phenyl)acrylamide]",,4.52 to 5.00
"C=CC(=O)Nc1cc(C(=O)N2CC[C@@H](Nc3ncc(Cl)cn3)C2)nn1C [Example 110, (R)—N-(3-(3-((5-chloropyrimidin-2-yl)amino)pyrrolidine-1-carbonyl)-1-methyl-1H-pyrazol-5-yl)acrylamide]",5.00 to 6.00,
